Article PMC6509344, “Novel CMKLR1 Inhibitors for Application in Demyelinating Disease” (Scientific Reports, 2019)
Read-outs that look alike come from different tables or passages of the source.

Tests used:
hERG potassium channel = biological target: T1, hERG potassium channel (Homo sapiens, UniProt Q12809); experiment: hERG inhibition, patch-clamp with CHO-hERG transfectants; format: cell-based; conditions: hERG tail current, 0.008-25 uM
T1 construct: host or cells: CHO
Procedure: A patch-clamp assay with single CHO-hERG cell transfectants were used to quantify potential α-NETA-dependent hERG inhibition (2–3 cells per compound concentration). […] The cell was depolarized, and the hERG tail current was measured, and IC50 determined (Cyprotex/Evotec AG).

[1] = Acute single dose toxicity (LD50); conditions: C57BL/6, mouse, in vivo; p.o. (oral gavage) in 10% captisol, WT C57BL6 mice, 14 days monitoring
Procedure: C57/BL6 mice received one treatment of α-NETA (formulated in 10% captisol, Cydex Pharmaceuticals) at the following doses: 3000, 1000, 300, 100, 30, 0 mg/kg by oral gavage (200 ul/dose, 3 mice/group). Mouse survival was monitored and body weight was measured daily for 14 days. On day 14 the mice were euthanized and the wet weight for the following tissues: kidney, brain, spleen, liver, heart, and lung, was recorded.

C57BL/6 mice with EAE = experiment: Experimental autoimmune encephalomyelitis (EAE), MOG35–55/CFA immunization; format: in vivo, mouse
Procedure: C57BL/6 mice were purchased from The Jackson Laboratory. […] Animal experiments were conducted in accordance with approved Veterans Affairs, National Institutes of Health, and Institutional Animal Care and Use Committee guidelines.
CFA consisted of 5 mg/ml mTB (Mycobacterium-tuberculosis H37 Ra, BD Difco) in IFA (Incomplete Freund’s Adjuvant, Sigma). MOG35–55 was reconstituted at 2 mg/ml in PBS. Mice also received 200 ng pertussis toxin (List Biological Laboratories, Inc) by i.p. injection at the time of immunization and two days later. […] For a direct comparison to α-NETA, the DMF and compound doses were also 10 mg/kg in 10% captisol. Mice were monitored daily for clinical disease and scored (0 = normal/healthy, 1 = limp tail, 2 = hindlimb weakness, 3 = hindlimb paralysis, 4 = hindlimb and forelimb paralysis, 5 = moribund/dead).

CMKLR1 = biological target: T2, CMKLR1 (Homo sapiens, UniProt Q99788); experiment: β-arrestin recruitment assay (chemerin-dependent β-arrestin2 signaling); format: cell-based; conditions: CMKLR1-CHO-β-Arrestin cells, 20 nM chemerin, read-out: β-arrestin IC50 mean ± SEM (n)
T2 construct: host or cells: CHO-K1 (PathHunter CMKLR1 β-Arrestin cells)
T2 sequence (Q99788 1-373): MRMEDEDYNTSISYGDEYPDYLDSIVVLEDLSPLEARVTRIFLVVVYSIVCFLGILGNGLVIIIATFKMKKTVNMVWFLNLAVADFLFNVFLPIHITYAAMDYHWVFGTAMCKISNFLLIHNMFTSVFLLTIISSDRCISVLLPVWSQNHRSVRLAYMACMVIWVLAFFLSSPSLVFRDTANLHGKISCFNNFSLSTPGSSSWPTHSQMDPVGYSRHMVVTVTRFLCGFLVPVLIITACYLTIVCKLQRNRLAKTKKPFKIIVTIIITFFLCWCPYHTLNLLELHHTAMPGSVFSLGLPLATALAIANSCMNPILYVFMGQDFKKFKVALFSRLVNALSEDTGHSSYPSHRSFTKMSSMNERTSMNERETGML
Procedure: DiscoverX PathHunter® CHO-K1 CMKLR1 β-Arrestin Cells were grown in RPMI lacking phenol red (Gibco, Life Technologies), supplemented with L-glutamine, penicillin-streptomycin, sodium pyruvate, non-essential amino acid, BCS, hygromycin, and G418-sulfate. CMKLR1-CHO-β-Arrestin cells were seeded in 96 well plates at 1 × 10^5 cell/ml- 100 ul/well and incubated overnight at 37 °C, 5% CO2. […] (α-NETA and test compounds were reconstituted in DMSO; final DMSO concentration in each well was 0.1%). After 10 min, 5 ul of recombinant human chemerin (R&D Systems) at a final concentration of 20 nM was added to each well. Plates were incubated for 90 min at 37 °C, 5% CO2. Media was then removed and 50 ul of chemiluminescent substrate (Tropix Gal-Screen, Applied Biosciences) was added. The plate was incubated for 1 hr at RT and luminescence was detected using the SpectraMax M5 plate reader (Molecular Devices). For each independent trial (single replicate dose curves), data was normalized to the maximum signal per compound tested and an IC50 value was generated using GraphPad Prism software. The average IC50 value for n independent trials (as specified in the table) is reported.

T1 sequence (Q12809 whole entry): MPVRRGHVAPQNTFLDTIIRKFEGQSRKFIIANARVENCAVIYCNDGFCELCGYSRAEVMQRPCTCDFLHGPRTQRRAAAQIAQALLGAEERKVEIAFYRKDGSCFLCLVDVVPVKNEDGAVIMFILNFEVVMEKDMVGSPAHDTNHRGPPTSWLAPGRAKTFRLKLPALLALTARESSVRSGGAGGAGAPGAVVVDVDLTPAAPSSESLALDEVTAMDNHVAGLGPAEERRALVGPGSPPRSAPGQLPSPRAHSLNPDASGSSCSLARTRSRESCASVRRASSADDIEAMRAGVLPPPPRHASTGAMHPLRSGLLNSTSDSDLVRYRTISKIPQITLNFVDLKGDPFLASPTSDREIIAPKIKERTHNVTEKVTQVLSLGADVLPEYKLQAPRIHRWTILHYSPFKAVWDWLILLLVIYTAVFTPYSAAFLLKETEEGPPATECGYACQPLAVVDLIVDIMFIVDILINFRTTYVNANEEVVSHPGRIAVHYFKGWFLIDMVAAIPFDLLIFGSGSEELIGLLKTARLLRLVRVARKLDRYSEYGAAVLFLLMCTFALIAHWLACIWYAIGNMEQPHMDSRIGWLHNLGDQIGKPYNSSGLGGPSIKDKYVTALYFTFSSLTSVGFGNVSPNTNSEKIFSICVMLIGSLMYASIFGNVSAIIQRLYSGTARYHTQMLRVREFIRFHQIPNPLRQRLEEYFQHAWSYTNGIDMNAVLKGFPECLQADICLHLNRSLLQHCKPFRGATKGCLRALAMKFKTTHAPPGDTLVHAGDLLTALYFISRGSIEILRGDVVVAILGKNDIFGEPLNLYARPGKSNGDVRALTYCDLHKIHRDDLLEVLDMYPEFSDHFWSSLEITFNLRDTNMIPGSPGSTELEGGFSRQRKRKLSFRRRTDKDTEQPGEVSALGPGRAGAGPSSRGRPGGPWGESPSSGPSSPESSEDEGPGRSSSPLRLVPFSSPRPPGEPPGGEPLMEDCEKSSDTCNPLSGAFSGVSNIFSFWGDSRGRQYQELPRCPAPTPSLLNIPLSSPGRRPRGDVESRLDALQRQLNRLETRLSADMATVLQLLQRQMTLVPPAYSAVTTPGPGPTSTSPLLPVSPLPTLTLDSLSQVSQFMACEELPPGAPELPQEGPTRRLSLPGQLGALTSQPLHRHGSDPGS

SMILES: C[N+](C)(C)CCC(=O)c1cccc2ccccc12.[I-] [α-NETA, 2-(α-naphthoyl) ethyltrimethylammonium iodide]
- IC50 (hERG potassium channel): 10.4 µM
- LD50 at 14 days [1]: 873 mg/kg
- day of EAE onset (mean ± SEM) (C57BL/6 mice with EAE; Fig. 1 study, 10 mg/kg daily in 10% captisol, s.c., d29 onset assumed for 2 α-NETA mice): 21 ± 2 days
- Day of onset (Mean ± SEM) (C57BL/6 mice with EAE; Table 4, 10 mg/kg daily to D21, n = 8): 14.4 ± 0.6
- Maximum Score (Mean ± SEM) (C57BL/6 mice with EAE; Table 4, 10 mg/kg daily to D21, n = 8, clinical score 0-5): 2.6 ± 0.2
- AUC (Mean ± SEM) of clinical score (C57BL/6 mice with EAE; Table 4, 10 mg/kg daily to D21, n = 8, mean clinical score x day): 31.9 ± 4.0
- IC50 (CMKLR1; Table 2 tertiary amines): 4.9 ± 1.5 µM
- IC50 (CMKLR1; Table 3 quaternary ammonium salts): 4.9 ± 1.5 µM
